Legend:
[1] = test system: PDH (pyruvate dehydrogenase); experiment: PDH protein expression (immunofluorescence); format: cell-based, human; conditions: HCT-116 and HT-29; 2.5 mM, 24 hours
Description: After the same method as that of Example 6-1 except that an anti-rabbit PDH antibody was used instead of the anti-rabbit LDHB antibody was performed, protein expression levels of PDH in human colorectal cancer cell lines (HCT-116 and HT-29) treated with calcium lactate were measured (FIG. 13).

[2] = test system: human colorectal cancer cell lines (HCT-116, HT-29, and DLD-1); experiment: Colony-forming ability of colorectal cancer cell lines in solid medium; format: cell-based; conditions: HCT-116, HT-29, DLD-1; with increasing concentration (0.5, 1.5, 2.5 mM), 10 days
Description: Firstly, human colorectal cancer cell lines (HCT-116, HT-29, and DLD-1) were inoculated into solid mediums including various concentrations (0 mM, 0.5 mM, 1.5 mM, or 2.5 mM) of calcium lactate and cultured for 10 days. After the completion of the culture, the cells were immobilized and stained with hematoxylin. Then, the number of cancer cells formed into colonies was counted (FIG. 23).

cancer cell lines = experiment: α-KG level in cancer cells (α-Ketoglutarate assay kit); format: cell-based; conditions: normal medium or glutamine-free medium; 2.5 mM, 24 hours
Description: Cancer cell lines with the cell number of 5×10^5 cells cultured in a normal medium or a glutamine-free medium were treated with 2.5 mM calcium lactate for 24 hours and the cells were disrupted by ultrasonication and filtered using a 10 kDa filter so as to obtain filtrate. The obtained filtrate was applied to an α-Ketoglutarate assay kit (BioVision, Exton, Pa.) to measure the concentration of α-KG included in the filtrate (FIGS. 14a and 14b).

cancer cell = experiment: Comparison of lactate delivery efficiency to a cancer cell; format: cell-based; conditions: compared with sodium lactate and potassium lactate
[3] = test system: human breast cancer cell line (MCF-7); experiment: Colony-forming ability, anticancer drug in combination with calcium lactate (6-well plates); format: cell-based; conditions: 2.5 mM calcium lactate alone, vs control
Description: Human breast cancer cell line (MCF-7) and a human lung cancer cell line (A549) with the cell number of 1×10^3 cells were seeded into an RPMI1640 medium in each of 6-well plates. […] Then, the colony-forming abilities of the cells were compared. In this case, a human breast cancer cell line (MCF-7) and a human lung cancer cell line (A549) untreated with any drug were used as control groups (FIGS. 42a, 42b, 43a and 43b).
Human breast cancer cell line (MCF-7) with the cell number of 1×10^3 cells were seeded into an RPMI1640 medium in each of 6-well plates. After one day, the medium was replaced with fresh medium and the cells were treated with 2.5 mM calcium lactate or 2 μM, 4 μM, and 8 μM Lapatinib alone or treated with various concentrations (2 μM, 4 μM, and 8 μM) of Lapatinib in combination with 2.5 mM calcium lactate. Then, the colony-forming abilities of the cells were compared. In this case, a human breast cancer cell line (MCF-7) untreated with any drug was used as a control group (FIGS. 52a and 52b).

[4] = test system: colorectal cancer cell (HT-29); experiment: Tumor volume and morphology in HT-29 implanted animal model; format: in vivo, Balb/c mice
Description: A colorectal cancer cell (HT-29) cultured in an RPMI1640 medium and then diluted with PBS was subcutaneously implanted into the flank of Balb/c mice. The mice were bred until the colorectal cancer cell grew to about 5 mm. Then, four groups were set up; a control group untreated with calcium lactate for 30 days, an experimental group 1 (peroral, P.O.) administered with 2.5 mM calcium lactate by oral administration, an experimental group 2 (intra tumor, I.T) injected with 2.5 mM calcium lactate around tumor, and an experimental group 3 (subcutaneous, S.C) subcutaneously injected with 25 mM calcium lactate (FIG. 27).
The volumes of colorectal cancer tissues extracted from the mice of the control group or the experimental group 1 set up in Example 10-1 were measured over time and compared with each other (FIG. 30).
The volumes of colorectal cancer tissues extracted from the mice of the control group or the experimental group 2 set up in Example 10-1 were measured over time and compared with each other (FIG. 32).
The tumor morphologies of the mice of the control group or the experimental group 2 set up in Example 10-1 were compared with each other (FIG. 33).
The volumes of colorectal cancer tissues extracted from the mice of the control group or the experimental group 3 set up in Example 10-1 were measured over time and compared with each other (FIG. 34).
The tumor morphologies of the mice of the control group or the experimental group 3 set up in Example 10-1 were compared with each other (FIG. 35).

[5] = test system: melanoma cell lines (SKMEL-02 and SKMEL-28); experiment: Cell migration of melanoma cell lines; format: cell-based; conditions: 2.5 mM, 24 hours after insert removal, vs untreated
Description: (§1) A colorectal cancer cell line HCT-116 with the cell number of 4×10^5 cells was inoculated into a culture container at the center of which an ibidi culture insert having a thickness of 500 μm was placed, and treated with 2.5 mM calcium lactate and then cultured for 24 hours. Then, the insert was removed and further cultured for 12 hours to analyze migration of the cancer cells to a site where the insert was removed using a JuLi Br, Live cell analyzer (NanoEnTek Inc., South Korea) (FIG. 18). In this case, a colorectal cancer cell line cultured without treating with calcium lactate was used as a control group.
Using the same method as Example 8-1, with melanoma cell lines (SKMEL-02 and SKMEL-28) instead of the colorectal cancer cell line and further cultured for 24 hours after removal of the insert was performed, the effect of calcium lactate on migration of the melanoma cell lines was examined (FIG. 20).

[6] = test system: LDH-B (lactate dehydrogenase B); experiment: LDH-B protein expression (immunofluorescence); format: cell-based, human; conditions: HCT-116 and HT-29; 2.5 mM, 24 hours
Description: Human colorectal cancer cell lines (HCT-116 and HT-29) were treated with 2.5 mM calcium lactate and cultured for 24 hours. The cultured cancer cell lines were immobilized with 4% paraformaldehyde and treated with an anti-rabbit LDHB antibody for 15 hours. Then, the cancer cell lines were washed with PBS and treated with a secondary antibody conjugated with biotin and then reacted at room temperature for 2 hours. Then, the cancer cell lines were treated with streptavidine conjugated with FITC to perform fluorescence staining and then photographed with a fluorescence microscope (FIG. 11a-11c). In this case, cancer cell lines cultured under normoxia condition (N-control) or hypoxia condition (H-control) were used as control groups, and a nucleus of each cell was stained using DAPI. Further, the photos were analyzed using the Xenogen In Vivo Imaging System 100 series and Living imaging software (Xenogen).

[7] = test system: VEGF (vascular endothelial growth factor); experiment: VEGF mRNA and protein expression; format: cell-based, human; conditions: HCT-116 and HT-29; 2.5 mM, 24 hours, hypoxia condition
Description: Human colorectal cancer cell lines (HCT-116 and HT-29) were treated with 2.5 mM calcium lactate under hypoxia condition and cultured for 24 hours. Then, mRNA expression levels and protein expression levels of VEGF in each of the cultured cancer cell lines were analyzed (FIGS. 16a and 16b). In this case, human colorectal cancer cell lines cultured without treating with calcium lactate under normoxia or hypoxia condition were used as control groups.

[8] = test system: colorectal cancer cell line HCT-116; experiment: Cell migration of colorectal cancer cell line (culture insert); format: cell-based; conditions: 2.5 mM, 24 hours, then 12 hours after insert removal
Description: as §1

CC(O)C(=O)[O-].CC(O)C(=O)[O-].[Ca+2] (stereo not drawn) [calcium lactate]
protein expression levels of PDH [1]: sharply increased
number of colonies [2]: decreased
α-KG levels in the cells (cancer cell lines): sharply increased
lactate delivery efficiency to a cancer cell (cancer cell): highest lactate delivery efficiency
colony-forming ability [3]: suppressed
tumor morphology ([4]; 2.5 mM injected around tumor): decreased in size with decreased angiogenesis
tumor morphology ([4]; 25 mM subcutaneously injected): greatly decreased in size and angiogenesis is also reduced
final tumor volume ([4]; 25 mM subcutaneously injected, 30 days (control about 2300)): about 80 mm^3
cell migration (metastatic capacity) [5]: relatively low levels of metastasis
protein expression levels of LDH-B [6]: sharply increased
VEGF level (mRNA and protein) [7]: decreased
cell migration [8]: decreased

— patent US11413261B2, “Pharmaceutical composition for treating cancer comprising lactate metal salt” (METIMEDI PHARMACEUTICALS CO., LTD, priority 2014, dated 2022)
